# Where a name gives a salt, the structure may show the parent alone.
# Legend:
# Male ob/ob mice = experiment: In vivo ob/ob mouse study: 22 days oral q.d., glucose, OGTT, plasma insulin, body weight; conditions: for Body Weight / Fed Glucose / Plasma Insulin: 22 days; for Blood Glucose AUC during OGTT: OGTT day 18, glucose 0.5 g/kg
# Protocol: The mice were allowed ad libitum access to water and chow (commercially supplied diet). […] On the first morning, the mice were grouped as noted above and fed glucose. […] Body weight, food intake and fed blood glucose levels were measured weekly. An oral glucose tolerance test (OGTT) was conducted on the mice on day 18, after overnight fasting. […] Following completion of the study, final body weight and blood glucose level of were collected and the mice in each group was sacrificed to collect blood for biochemistry analysis, including fed blood glucose levels, fasted blood glucose levels, blood glucose levels during OGTT, plasma insulin and body weight change.
# [1] = tested on: Male C57BL/6 mice (high fat diet, Steptozotocin); experiment: In vivo mouse study: high fat diet / STZ C57BL/6 mice, 3 weeks oral treatment, fed and fasted glucose, OGTT; conditions: for Fed Glucose / Fed Glucose (% relative to the Vehicle): 3 weeks; for Blood Glucose AUC during OGTT / Blood Glucose AUC during OGTT (% relative to the Vehicle): glucose 2 g/kg; for Fasted Glucose / Fasted Glucose (% relative to the Vehicle): overnight fast from day 18
# From the text: All the mice were then kept on a high fat diet for another 3 weeks. […] At the start of the pre-dose period, each mouse was assigned a predose number, which was indicated on its cage card. After assignment to dosage groups, each mouse was assigned a unique study identification number (which will be indicated on its cage card) and identified by permanent marker on its tail. Mice were housed 5 mice per cage in stainless steel cages. […] The temperature and humidity ranges will be monitored by a hygrothermograph. Mice were fed ad libitum (except where noted) with high-fat diet prepared in Southern University. Water was provided ad libitum by water bottles. The quarantine period was 5 days. The test compound or vehicle was administered orally by gavage. The dosage levels were chosen to represent a range of exposures with pharmacology effects. […] The mice were randomly divided into six testing group of 10 mice per group. Each group was treated for 3 weeks, via oral administration, with one of the following regimens: (a) vehicle; […] On Day 1 (the first day of dosing), dosing at all dose levels was initiated. All groups were then dosed for 20 additional days. The following pharmacological parameters were measured during and at the end of this study: […] The following morning, a basal fasted blood glucose level was determined. […] Food was replaced after the last time point of blood glucose measurement. The pharmacological significance of any findings was determined based on statistical analysis and historical control data. Statistical analyses were performed utilizing GraphPadPRISM.
# [2] = Metformin HCl 250 mg/kg P.O. q.d.
structure (smiles),measurement,setting,value
"CN(C)C(=N)N=C(N)N [Metformin HCl, metformin hydrochloride, reference compound]",Fasted Glucose,Male ob/ob mice; [2],166 ± 16 mg/dL
same,Body Weight,Male ob/ob mice; [2],52 ± 0.9 g
same,Fed Glucose,Male ob/ob mice; [2],371 ± 35 mg/dL
same,Plasma Insulin,Male ob/ob mice; [2],48.4 ± 2.0 ng/dL
same,Blood Glucose AUC during OGTT,Male ob/ob mice; [2],91 ± 9 mg/dL * 2 h
"CN(C)C(=N)N=C(N)N [Metformin, reference compound]",Fed Glucose,[1]; Metformin 500 mg/kg oral,345.4 ± 28.4 mg/dL
same,Fed Glucose (% relative to the Vehicle),[1]; Metformin 500 mg/kg oral,82% ± 7%
same,Blood Glucose AUC during OGTT,[1]; Metformin 500 mg/kg oral,34023 ± 1618 mg/dL * 2 h
same,Blood Glucose AUC during OGTT (% relative to the Vehicle),[1]; Metformin 500 mg/kg oral,92% ± 4%
same,Fasted Glucose,[1]; Metformin 500 mg/kg oral,74.7 ± 3.8 mg/dL
same,Fasted Glucose (% relative to the Vehicle),[1]; Metformin 500 mg/kg oral,85.9% ± 4.4%
same,effect on blood glucose control (result in words),Male ob/ob mice; 250 mg/kg,did not have an effect
Cc1ccc([C@@H]2O[C@H](CO)[C@@H](O)[C@H](O)[C@H]2O)cc1Cc1ccc(-c2ccc(F)cc2)s1 [Cmpd (I-X)],blood glucose levels (result in words),Male ob/ob mice; 10 mg/kg,significantly reduced
same,glucose excursion during OGTT (result in words),Male ob/ob mice; 10 mg/kg,improved
same,Fasted Glucose,Male ob/ob mice; Cmpd (I-X) 1 mg/kg P.O. q.d.,159 ± 12 mg/dL
same,Body Weight,Male ob/ob mice; Cmpd (I-X) 1 mg/kg P.O. q.d.,53 ± 0.8 g
same,Fed Glucose,Male ob/ob mice; Cmpd (I-X) 1 mg/kg P.O. q.d.,312 ± 34 mg/dL
same,Plasma Insulin,Male ob/ob mice; Cmpd (I-X) 1 mg/kg P.O. q.d.,46.3 ± 3.5 ng/dL
same,Blood Glucose AUC during OGTT,Male ob/ob mice; Cmpd (I-X) 1 mg/kg P.O. q.d.,80 ± 4 mg/dL * 2 h
same,Fasted Glucose,Male ob/ob mice; Cmpd (I-X) 10 mg/kg P.O. q.d.,86 ± 4 mg/dL
same,Body Weight,Male ob/ob mice; Cmpd (I-X) 10 mg/kg P.O. q.d.,54 ± 0.8 g
same,Fed Glucose,Male ob/ob mice; Cmpd (I-X) 10 mg/kg P.O. q.d.,254 ± 22 mg/dL
same,Plasma Insulin,Male ob/ob mice; Cmpd (I-X) 10 mg/kg P.O. q.d.,44.0 ± 3.6 ng/dL
same,Blood Glucose AUC during OGTT,Male ob/ob mice; Cmpd (I-X) 10 mg/kg P.O. q.d.,48 ± 3 mg/dL * 2 h
OC[C@H]1O[C@@H](c2ccc(Cl)c(Cc3ccc(-c4ccc(F)nc4)s3)c2)[C@H](O)[C@@H](O)[C@@H]1O [Cmpd (I-Y)],Fed Glucose,[1]; Cmpd (I-Y) 1 mg/kg oral,360.7 ± 15.7 mg/dL
same,Fed Glucose (% relative to the Vehicle),[1]; Cmpd (I-Y) 1 mg/kg oral,86% ± 4%
same,Blood Glucose AUC during OGTT,[1]; Cmpd (I-Y) 1 mg/kg oral,31562 ± 1447 mg/dL * 2 h
same,Blood Glucose AUC during OGTT (% relative to the Vehicle),[1]; Cmpd (I-Y) 1 mg/kg oral,85% ± 4%
same,Fasted Glucose,[1]; Cmpd (I-Y) 1 mg/kg oral,77.8 ± 4.9 mg/dL
same,Fasted Glucose (% relative to the Vehicle),[1]; Cmpd (I-Y) 1 mg/kg oral,89.4% ± 5.7%
same,Fed Glucose,[1]; Cmpd (I-Y) 10 mg/kg oral,290.5 ± 24.8 mg/dL
same,Fed Glucose (% relative to the Vehicle),[1]; Cmpd (I-Y) 10 mg/kg oral,69% ± 6%
same,Blood Glucose AUC during OGTT,[1]; Cmpd (I-Y) 10 mg/kg oral,25209 ± 894 mg/dL * 2 h
same,Blood Glucose AUC during OGTT (% relative to the Vehicle),[1]; Cmpd (I-Y) 10 mg/kg oral,68% ± 2%
same,Fasted Glucose,[1]; Cmpd (I-Y) 10 mg/kg oral,66.9 ± 3.1 mg/dL
same,Fasted Glucose (% relative to the Vehicle),[1]; Cmpd (I-Y) 10 mg/kg oral,76.9% ± 3.6%
